In patent publication US20250100968A1, “BICYCLIC-HETEROCYCLE DERIVATIVES AND RELATED USES” (CENTESSA PHARMACEUTICALS (UK) LIMITED, priority 2022, published 2025) one finds EC50 data, which are given here for 23 compounds.
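Further: agonist activity in CHO cells stably expressing hOX2R, intracellular Ca2+ via Calcium 5 dye fluorescence area over 2 min, buffer-only as 0% and 10 nM orexin A as 100%.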

For this experiment, the target named is T1, human orexin type 2 receptor (hOX2R) (Homo sapiens, UniProt O43614).
T1 sequence (O43614 1-444): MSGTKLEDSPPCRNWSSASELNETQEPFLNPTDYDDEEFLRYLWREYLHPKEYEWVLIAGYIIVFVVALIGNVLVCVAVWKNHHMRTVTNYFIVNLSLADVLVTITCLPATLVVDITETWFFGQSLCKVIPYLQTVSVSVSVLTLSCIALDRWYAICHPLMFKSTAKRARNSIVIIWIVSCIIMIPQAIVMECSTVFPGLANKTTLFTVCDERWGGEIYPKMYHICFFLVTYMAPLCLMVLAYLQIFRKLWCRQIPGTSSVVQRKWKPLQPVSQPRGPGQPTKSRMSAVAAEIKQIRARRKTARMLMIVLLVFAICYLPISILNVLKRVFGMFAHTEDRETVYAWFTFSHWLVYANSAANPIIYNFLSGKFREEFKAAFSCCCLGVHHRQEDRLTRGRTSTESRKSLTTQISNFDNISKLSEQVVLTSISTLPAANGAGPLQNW
The experiment is described as follows: cell-based.
Method: Measurement of orexin type 2 receptor agonist activity. […] After removal of the medium, 50 μl of assay buffer 1 (0.1% bovine serum albumin (Sigma Aldrich), 20 mM HEPES (Molecular Dimensions), 250 mM probenecid (Sigma Aldrich), 1× Calcium 5 dye (Molecular Devices) in Hank's balanced salt solution (Invitrogen)) was added, and the cells were incubated for 60 min under the conditions of 37° C., 5% CO2. A test compound was dissolved in dimethyl sulfoxide (Sigma Aldrich) to 10 mM, and then diluted with assay buffer 2 (20 mM HEPES, Hank's balanced salt solution, 0.1% bovine serum albumin). For the reaction, a test compound solution (10 μl) was added using Fluorescent Imaging Plate Reader TETRA (FLIPR TETRA: manufactured by Molecular Devices), a fluorescence value (excitation wavelength 488 nm, measurement wavelength 570 nm) of each well was measured every one second for 2 min, and the agonist activity was determined using the area of the fluorescence value as an indicator of intracellular Ca^2+ concentration. The agonist activity of the test compound was calculated assuming that the fluorescence value of the well added with only the dilution buffer was 0% and the fluorescence value of the well added with 10 nM human orexin A (Tocris) buffer was 100%.
Broadly, the EC50 is the concentration needed to bring the measured effect to its halfway point. Low values mean higher potency in that assay, high ones lower potency in that assay. With `CC(C)(F)CNC(=O)N1CC2(CC2)[C@H](NS(=O)(=O)C(F)F)[C@@H]1Cc1cccc(-c2cccc(F)c2)c1F` [compound 71, (6S,7S)-6-((2,3′-difluoro-[1,1′-biphenyl]-3-yl)methyl)-7-((difluoromethyl)sulfonamido)-N-(2-fluoro-2-methylpropyl)-5-azaspiro[2.4]heptane-5-carboxamide], the half-maximal effective concentration (EC50) was in the range of 0.0631 to 1 nM.

As for `CC[C@](C)(O)C(=O)N1CC2(CC2)[C@H](NS(=O)(=O)C(F)F)[C@@H]1Cc1cccc(-c2cc(F)cc(F)c2)c1F` [compound 78, 1,1-difluoro-N-((6S,7S)-5-((S)-2-hydroxy-2-methylbutanoyl)-6-((2,3′,5′-trifluoro-[1,1′-biphenyl]-3-yl)methyl)-5-azaspiro[2.4]heptan-7-yl)methanesulfonamide], the EC50 fell in the range of 1 to 10 nM.

Compound `O=C(N1CC2(CC2)[C@H](NS(=O)(=O)CF)[C@@H]1Cc1cccc(-c2ccccc2)c1F)C1(CF)COC1` [compound 81, 1-fluoro-N-((6S,7S)-6-((2-fluoro-[1,1′-biphenyl]-3-yl)methyl)-5-(3-(fluoromethyl)oxetane-3-carbonyl)-5-azaspiro[2.4]heptan-7-yl)methanesulfonamide] returned a 50% effective concentration (EC50) of 1 to 10 nM.

Compound `CC[C@@](C)(O)C(=O)N1CC2(CC2)[C@H](NS(=O)(=O)C(F)F)[C@@H]1Cc1cccc(-c2cc(F)cc(F)c2)c1F` [compound 77, 1,1-difluoro-N-((6S,7S)-5-((R)-2-hydroxy-2-methylbutanoyl)-6-((2,3′,5′-trifluoro-[1,1′-biphenyl]-3-yl)methyl)-5-azaspiro[2.4]heptan-7-yl)methanesulfonamide] gave a 50% effective concentration (EC50) of 0.0631 to 1 nM.

In turn, `N#C[C@]1(C(=O)N2CC3(CC3)[C@H](NS(=O)(=O)C(F)F)[C@@H]2Cc2cccc(-c3cc(F)cc(F)c3)c2F)CCO1` [compound 48, N-((6S,7S)-5-((S)-2-cyanooxetane-2-carbonyl)-6-((2,3′,5′-trifluoro-[1,1′-biphenyl]-3-yl)methyl)-5-azaspiro[2.4]heptan-7-yl)-1,1-difluoromethanesulfonamide] had a half-maximal effective concentration (EC50) of 0.0631 to 1 nM.

The compound `O=C([C@@H](O)C1CC1)N1CC2(CC2)[C@H](NS(=O)(=O)C(F)F)[C@@H]1Cc1cccc(-c2cc(F)cc(F)c2)c1F` [compound 32, N-((6S,7S)-5-((S)-2-cyclopropyl-2-hydroxyacetyl)-6-((2,3′,5′-trifluoro-[1,1′-biphenyl]-3-yl)methyl)-5-azaspiro[2.4]heptan-7-yl)-1,1-difluoromethanesulfonamide] yielded an EC50 of 1 to 10 nM.

Take `CC(C)(F)CNC(=O)N1CC2(CC2)[C@H](NS(=O)(=O)CF)[C@@H]1Cc1cccc(-c2cccc(F)c2)c1F` [compound 73, (6S,7S)-6-((2,3′-difluoro-[1,1′-biphenyl]-3-yl)methyl)-N-(2-fluoro-2-methylpropyl)-7-((fluoromethyl)sulfonamido)-5-azaspiro[2.4]heptane-5-carboxamide]: the EC50 was in the range of 1 to 10 nM.

`O=C([C@H]1CCCO1)N1CC2(CC2)[C@H](NS(=O)(=O)C(F)F)[C@@H]1Cc1cccc(-c2cc(F)cc(F)c2)c1F` [compound 50, 1,1-difluoro-N-((6S,7S)-5-((R)-tetrahydrofuran-2-carbonyl)-6-((2,3′,5′-trifluoro-[1,1′-biphenyl]-3-yl)methyl)-5-azaspiro[2.4]heptan-7-yl)methanesulfonamide] yielded an EC50 of 1 to 10 nM.

`C[C@H](CF)NC(=O)N1CC2(CC2)[C@H](NS(=O)(=O)C2(F)CC2)[C@@H]1Cc1cccc(-c2ccccc2)c1F` [compound 86, (6S,7S)-6-((2-fluoro-[1,1′-biphenyl]-3-yl)methyl)-7-((1-fluorocyclopropane)-1-sulfonamido)-N-((R)-1-fluoropropan-2-yl)-5-azaspiro[2.4]heptane-5-carboxamide]: the half-maximal effective concentration (EC50) was 0.0631 to 1 nM.

For `O=C([C@H](O)CF)N1CC2(CC2)[C@H](NS(=O)(=O)C(F)F)[C@@H]1Cc1cccc(-c2cc(F)cc(F)c2)c1F` [compound 8, 1,1-difluoro-N-((6S,7S)-5-((S)-3-fluoro-2-hydroxypropanoyl)-6-((2,3′,5′-trifluoro-[1,1′-biphenyl]-3-yl)methyl)-5-azaspiro[2.4]heptan-7-yl)methanesulfonamide], the EC50 lay in the range of 1 to 10 nM.

Consider `COC[C@@H](F)C(=O)N1CC2(CC2)[C@H](NS(=O)(=O)C(F)F)[C@@H]1Cc1cccc(-c2cc(F)cc(F)c2)c1F` [compound 66, 1,1-difluoro-N-((6S,7S)-5-((R)-2-fluoro-3-methoxypropanoyl)-6-((2,3′,5′-trifluoro-[1,1′-biphenyl]-3-yl)methyl)-5-azaspiro[2.4]heptan-7-yl)methanesulfonamide], for which the EC50 was 1 to 10 nM.

Turning to `C[C@@H](C#N)C(=O)N1CC2(CC2)[C@H](NS(=O)(=O)C(F)F)[C@@H]1Cc1cccc(-c2ccccc2)c1F` [compound 41, N-((6S,7S)-5-((S)-2-cyanopropanoyl)-6-((2-fluoro-[1,1′-biphenyl]-3-yl)methyl)-5-azaspiro[2.4]heptan-7-yl)-1,1-difluoromethanesulfonamide], the EC50 lay in the range of 1 to 10 nM.

`CC[C@@](C)(O)C(=O)N1CC2(CC2)[C@H](NS(=O)(=O)CF)[C@@H]1Cc1cccc(-c2cccc(F)c2)c1F` [compound 30, N-((6S,7S)-6-((2,3′-difluoro-[1,1′-biphenyl]-3-yl)methyl)-5-((R)-2-hydroxy-2-methylbutanoyl)-5-azaspiro[2.4]heptan-7-yl)-1-fluoromethanesulfonamide] came in with an EC50 of 0.0631 to 1 nM.

Turning to `C[C@@](O)(CF)C(=O)N1CC2(CC2)[C@H](NS(=O)(=O)CF)[C@@H]1Cc1cc(F)cc(-c2ccccc2)c1F` [compound 72, N-((6S,7S)-6-((2,5-difluoro-[1,1′-biphenyl]-3-yl)methyl)-5-((S)-3-fluoro-2-hydroxy-2-methylpropanoyl)-5-azaspiro[2.4]heptan-7-yl)-1-fluoromethanesulfonamide], the EC50 lay in the range of 0.0631 to 1 nM.

Turning to `C[C@@H](F)C(=O)N1CC2(CC2)[C@H](NS(=O)(=O)C(F)F)[C@@H]1Cc1cccc(-c2cc(F)cc(F)c2)c1F` [compound 31, 1,1-difluoro-N-((6S,7S)-5-((R)-2-fluoropropanoyl)-6-((2,3′,5′-trifluoro-[1,1′-biphenyl]-3-yl)methyl)-5-azaspiro[2.4]heptan-7-yl)methanesulfonamide], the EC50 fell in the range of 1 to 10 nM.

For the compound `C[C@@](O)(CF)C(=O)N1CC2(CC2)[C@H](NS(=O)(=O)C(F)F)[C@@H]1Cc1cccc(-c2cc(F)cc(F)c2)c1F` [compound 1, 1,1-difluoro-N-((6S,7S)-5-((S)-3-fluoro-2-hydroxy-2-methylpropanoyl)-6-((2,3′,5′-trifluoro-[1,1′-biphenyl]-3-yl)methyl)-5-azaspiro[2.4]heptan-7-yl)methanesulfonamide], the half-maximal effective concentration (EC50) lay within 1 to 10 nM.

As for `CC(C)(F)CNC(=O)N1CC2(CC2)[C@H](NS(=O)(=O)CF)[C@@H]1Cc1cc(F)cc(-c2ccccc2)c1F` [compound 51, (6S,7S)-6-((2,5-difluoro-[1,1′-biphenyl]-3-yl)methyl)-N-(2-fluoro-2-methylpropyl)-7-((fluoromethyl)sulfonamido)-5-azaspiro[2.4]heptane-5-carboxamide], the EC50 was 0.0631 to 1 nM.

`N#C[C@@]1(C(=O)N2CC3(CC3)[C@H](NS(=O)(=O)CF)[C@@H]2Cc2cccc(-c3cccc(F)c3)c2F)CCO1` [compound 45, N-((6S,7S)-5-((R)-2-cyanooxetane-2-carbonyl)-6-((2,3′-difluoro-[1,1′-biphenyl]-3-yl)methyl)-5-azaspiro[2.4]heptan-7-yl)-1-fluoromethanesulfonamide]: the 50% effective concentration (EC50) was 1 to 10 nM.

Turning to `C[C@H](F)S(=O)(=O)N[C@@H]1[C@H](Cc2cc(F)cc(-c3ccccc3)c2F)N(C(=O)[C@H]2CCO2)CC12CC2` [compound 56, (R)-N-((6S,7S)-6-((2,5-difluoro-[1,1′-biphenyl]-3-yl)methyl)-5-((R)-oxetane-2-carbonyl)-5-azaspiro[2.4]heptan-7-yl)-1-fluoroethane-1-sulfonamide], the 50% effective concentration (EC50) lay within 0.0631 to 1 nM.

For `C[C@@H](F)C(=O)N1CC2(CC2)[C@H](NS(=O)(=O)CF)[C@@H]1Cc1cc(F)cc(-c2cccc(F)c2)c1F` [compound 21, 1-fluoro-N-((6S,7S)-5-((R)-2-fluoropropanoyl)-6-((2,3′,5-trifluoro-[1,1′-biphenyl]-3-yl)methyl)-5-azaspiro[2.4]heptan-7-yl)methanesulfonamide], the EC50 was in the range of 0.0631 to 1 nM.

The compound `N#C[C@]1(C(=O)N2CC3(CC3)[C@H](NS(=O)(=O)CF)[C@@H]2Cc2cc(F)cc(-c3ccccc3)c2F)C[C@@H](F)C1` [compound 90, N-((6S,7S)-5-((1s,3R)-1-cyano-3-fluorocyclobutane-1-carbonyl)-6-((2,5-difluoro-[1,1′-biphenyl]-3-yl)methyl)-5-azaspiro[2.4]heptan-7-yl)-1-fluoromethanesulfonamide] registered a half-maximal effective concentration (EC50) of 1 to 10 nM.

As for `CC(C)(F)CNC(=O)N1CC2(CC2)[C@H](NS(=O)(=O)CF)[C@@H]1Cc1cccc(-c2cc(F)cc(F)c2)c1F` [compound 37, (6S,7S)-N-(2-fluoro-2-methylpropyl)-7-((fluoromethyl)sulfonamido)-6-((2,3′,5′-trifluoro-[1,1′-biphenyl]-3-yl)methyl)-5-azaspiro[2.4]heptane-5-carboxamide], the EC50 is 1 to 10 nM.

Take `O=C([C@H]1CCO1)N1CC2(CC2)[C@H](NS(=O)(=O)C2(F)CC2)[C@@H]1Cc1cc(F)cc(-c2ccccc2)c1F` [compound 87, N-((6S,7S)-6-((2,5-difluoro-[1,1′-biphenyl]-3-yl)methyl)-5-((R)-oxetane-2-carbonyl)-5-azaspiro[2.4]heptan-7-yl)-1-fluorocyclopropane-1-sulfonamide]: the half-maximal effective concentration (EC50) was in the range of 1 to 10 nM.
